Measured values taken from patent US10183047B2, “Chromium-containing compositions in combination with Phyllanthus emblica and shilajit having synergistic effects for improving endothelial function and cardiovascular health” (Natreon, Inc., priority 2014, dated 2019).

Columns and labels:
Assay type in all cases: in vivo, human
[1] = test system: nitric oxide (NO); test: Nitric oxide level, metabolic syndrome subjects
Method: (§1) Nitric oxide, MDA, Glutathione and levels were estimated spectrophotometrically as follows. Malondialdehyde (MDA) levels were determined as described in Vidyasagar, et al., “Oxidative stress and antioxidant status in acute organophosphorous insecticide poisoning,” Indian J. Pharmacol. (April 2004) 36(2): 76-79. Glutathione levels were determined as described in G. L. Ellman, Arch. Biochem. Biophys. (1959) 82: 70-77 (original determination). Nitric oxide levels were estimated spectrophotometrically as described in Miranda, et al., “A Rapid, Simple Spectrophotometric Method for Simultaneous Detection of Nitrate and Nitrite,” NITRIC OXIDE: Biology and Chemistry (2001) Vol. 5, No. 1, pp. 62-71. hsCRP (high sensitivity C-reactive protein) was determined by ELISA method.
(§2) Patients included in the study, were of either gender, aged 30-68 years, having endothelial dysfunction defined as ≤6% change in reflection index (RI) on post salbutamol challenge test and central obesity as defined by The International Diabetes Federation guidelines, dated 2006, and any two of the following conditions:
(§3) After screening, all the eligible subjects were randomized to receive either one of the three treatments orally for duration of 12 weeks: group 1—one capsule of Crominex®3+ 200 mcg once daily; group 2—one capsule 400 mcg once daily; group 3—one capsule of Placebo once daily.
(§4) Subjects were reviewed for follow up at 4 weeks, 8 and 12 weeks of therapy. At each visit they were evaluated for efficacy and safety. Pharmacodynamic evaluation for endothelial function was conducted at baseline and end of treatment. Blood samples were collected for evaluation of biomarkers before and at end of treatment. Safety lab investigations for hematological, hepatic and renal biochemical parameters were conducted before and at the end of the study and also as and when required (in case of any adverse drug reaction (ADR)). Subjects were enquired for the presence of ADR and the same was recorded in the case report form. Compliance to therapy was assessed by pill count method.
(§5) Assessment of endothelial function, biomarkers, safety parameters and primary and secondary efficacy parameters and data analysis were performed as described under the study with type 2 diabetic subjects in Example 1.
(§6) When the results with Crominex® 3+ in the above two examples were highly significant, especially with the 400 mcg once daily dose in type 2 diabetics, two more clinical studies (EXAMPLES 3 & 4) were conducted at the same institute, following the same methodology as described earlier, on the individual components of Crominex® 3+, i.e., chromium chloride and Phyllanthus emblica+Shilajit, and other chromium supplements available in the market, i.e., chromium picolinate, chromium polynicotinate and chromium dinicocysteinate, in type 2 diabetics as well as in subjects with metabolic syndrome symptoms.

[2] = test system: lipid profile; test: Lipid profile (TC, HDL-C, LDL-C, TG, VLDL-C), type 2 diabetics
Method: (§7) The present clinical study is a prospective, randomized, double blind, placebo-controlled study. Patients of either sex, aged 30-65 years, fasting plasma glucose of 110-126 mg/dl, a glycosylated hemoglobin (HbA1c) between 6.5% and 8% and taking stable dose of anti-diabetic treatment (metformin 1500-2000 mg/day) for the past 8 weeks prior to the screening visit; and having endothelial dysfunction defined as ≤6% change in reflection index (RI) on post salbutamol challenge test were included in the study. Patients with severe uncontrolled hyperglyceamia, uncontrolled hypertension, cardiac arrhythmia, impaired hepatic or renal function, history of malignancy or stroke, smoking, chronic alcoholism, any other serious disease requiring active treatment and treatment with any other herbal supplements, were excluded from the study.
(§8) After screening, all the eligible subjects were randomized to receive either one of the three treatments orally for duration of 12 weeks—Group1—one capsule of Crominex®3+, 200 mcg once daily, Group 2—one capsule Crominex®3+, 400 mcg once daily; Group 3—one capsule of placebo once daily.
as §4, with “Subjects were required for follow” for “Subjects were reviewed for follow”, “up at 4, 8 and” for “up at 4 weeks, 8 and”, “conducted at every visit. Blood samples” for “conducted at baseline and end of treatment. Blood samples”, “and at the end of” for “and at end of”, “drug reaction (ADR). Subjects were” for “drug reaction (ADR)). Subjects were”
(§9) All the subjects had undergone complete physical examination, safety lab evaluations at baseline and at the end of the treatment. Samples were collected after an overnight fast of 12 hrs after the last dose of medication for determination of hemoglobin, glycosylated hemoglobin (HbA1c), blood urea, serum creatinine, liver function, lipid profile (Total cholesterol, High density lipoprotein cholesterol (HDL-C), low density lipoprotein cholesterol (LDL-C) using appropriate standard techniques.
as §6

[3] = test system: nitric oxide (NO); test: Nitric oxide level, spectrophotometric, type 2 diabetics
Method: as §7, §8
as §4, with “Subjects were required for follow” for “Subjects were reviewed for follow”, “up at 4, 8 and” for “up at 4 weeks, 8 and”, “conducted at every visit. Blood samples” for “conducted at baseline and end of treatment. Blood samples”, “and at the end of” for “and at end of”, “drug reaction (ADR). Subjects were” for “drug reaction (ADR)). Subjects were”
as §1, §6

[4] = test system: high sensitivity C-reactive protein (hsCRP); test: hsCRP by ELISA, type 2 diabetics
Method: as §7, §8
as §4, with “Subjects were required for follow” for “Subjects were reviewed for follow”, “up at 4, 8 and” for “up at 4 weeks, 8 and”, “conducted at every visit. Blood samples” for “conducted at baseline and end of treatment. Blood samples”, “and at the end of” for “and at end of”, “drug reaction (ADR). Subjects were” for “drug reaction (ADR)). Subjects were”
as §1, §6

[5] = test system: lipid profile; test: Lipid profile (TC, HDL-C, LDL-C, TG), metabolic syndrome subjects
Excerpt: as §9
Patients included in the study, were of either gender, aged 30-68 years, having endothelial dysfunction defined as ≤6% change in reflection index (RI) on post salbutamol challenge test and central obesity as defined by The International Diabetes Federation guidelines, dated 2006, and any two of the following conditions: […]
as §4, §5, §6

[6] = Blood pressure, metabolic syndrome subjects; settings: metabolic syndrome subjects (Example 4), chromium products 400 mcg
Excerpt: as §2, §3, §4, §6

[7] = Blood pressure, type 2 diabetics; settings: type 2 diabetics (Example 3), chromium products 400 mcg
Method: as §6

[8] = metabolic syndrome subjects (Example 4), chromium products 400 mcg, after 12 weeks of treatment
[9] = metabolic syndrome subjects (Example 4), chromium products 400 mcg, pre-treatment
[10] = type 2 diabetics (Example 3), chromium products 400 mcg, 12 weeks of treatment
[11] = type 2 diabetics (Example 3), chromium products 400 mcg, post-treatment, 12 weeks
[12] = type 2 diabetics (Example 3), chromium products 400 mcg, pre-treatment
[13] = type 2 diabetics (Example 3), chromium products 400 mcg, 12 week treatment

With chromium picolinate the NO ([1]; MS, 400 mcg) was 13.9%, the “NO Post Tt” value [1, 8] was 32.94 ± 3.79 μM/L and the “Mean percentage change in NO” value ([1]; metabolic syndrome subjects (Example 4), chromium products 400 mcg, after 12 weeks treatment) was 13.92 ± 2.65%. The “NO Pre Tt” value [1, 9] was 28.94 ± 3.56 μM/L, the HDL ([2]; DM, 400 mcg) was 2.96% and the LDL ([2]; DM, 400 mcg) was −2.35%. The TC ([2]; DM, 400 mcg) was −0.99%, the TG ([2]; DM, 400 mcg) was −0.58% and the “Mean percentage change in HDL-C” value [2, 10] was 2.96 ± 3.38 @NS %. For the same substance, the “Mean percentage change in LDL-C” value [2, 10] was −2.35 ± 1.81 @NS %, the “Mean percentage change in Total Cholesterol” value [2, 10] was −0.99 ± 1.08NS % and the “Mean percentage change in Triglycerides” value [2, 10] was −0.58 ± 1.04 NS %. For the same substance, the “HDL-C Post Tt” value [2, 11] was 39.84 ± 1.12 $ mg/dl, the “LDL-C Post Tt” value [2, 11] was 119.07 ± 18.46 mg/dL and the “Total Cholesterol Post Tt” value [2, 11] was 194.68 ± 17.93 $ mg/dl. For the same substance, the “Triglycerides Post Tt” value [2, 11] was 178.84 ± 8.45 $ mg/dl, the “HDL-C Pre Tt” value [2, 12] was 38.74 ± 1.69 mg/dL and the “LDL-C Pre Tt” value [2, 12] was 121.92 ± 18.50 mg/dL. For the same substance, the “Total Cholesterol Pre Tt” value [2, 12] was 196.63 ± 18.07 mg/dL, the “Triglycerides Pre Tt” value [2, 12] was 179.89 ± 8.65 mg/dL and the NO ([3]; DM, 400 mcg) was 11.1%. For the same substance, the “Mean percentage change in NO” value [3, 13] was 11.09 ± 4.73@NS %, the “NO Post Tt” value [3, 11] was 32.96 ± 2.54 μM/L and the “NO Pre Tt” value [3, 12] was 29.75 ± 2.92 μM/L. For the same substance, the hsCRP ([4]; DM, 400 mcg) was −18.9%, the “Mean percentage change in hsCRP” value [4, 13] was −18.90 ± 7.04@$NS % and the “hsCRP Post Tt” value [4, 11] was 2.22 ± 0.64 mg/L. For the same substance, the “hsCRP Pre Tt” value [4, 12] was 2.70 ± 0.63 mg/L, the HDL ([5]; MS, 400 mcg) was 2.1% and the LDL ([5]; MS, 400 mcg) was −2.19%. The TC ([5]; MS, 400 mcg) was −1.18%, the TG ([5]; MS, 400 mcg) was −1.07% and the LDL-C, mean percentage change ([5]; mean percentage change after 12 weeks of treatment, 400 mcg, Example 4) was -2.19%. The “HDL-C Post Tt” value [5, 8] was 37.84 ± 4.45@ mg/dl, the “LDL-C Post Tt” value [5, 8] was 111.55 ± 12.58 mg/dL and the “Mean percentage change in HDL-C” value [5, 8] was 2.10 ± 2.84%. For the same substance, the “Mean percentage change in Total Cholesterol” value [5, 8] was −1.18 ± 0.90%, the “Mean percentage change in Triglycerides” value [5, 8] was −1.07 ± 1.20% and the “Total Cholesterol Post Tt” value [5, 8] was 182.84 ± 12.60 mg/dL. The “Triglycerides Post Tt” value [5, 8] was 167.26 ± 10.71 mg/dL, the “HDL-C Pre Tt” value [5, 9] was 37.11 ± 4.32 mg/dL and the “LDL-C Pre Tt” value [5, 9] was 114.13 ± 12.80 mg/dL. For the same substance, the “Total Cholesterol Pre Tt” value [5, 9] was 185.05 ± 13.03 mg/dL, the “Triglycerides Pre Tt” value [5, 9] was 169.11 ± 11.02 mg/dL and the “Diastolic blood pressure Post Tt” value ([6]; after 12 weeks of treatment) was 78.1 ± 2.26 NS mmHg. For the same substance, the “Systolic blood pressure Post Tt” value ([6]; after 12 weeks of treatment) was 121.5 ± 4.15 NS mmHg, the “Diastolic blood pressure Pre Tt” value ([6]; pre-treatment) was 79.2 ± 3.58 mmHg and the “Systolic blood pressure Pre Tt” value ([6]; pre-treatment) was 123.1 ± 5.39 mmHg. For the same substance, the “Diastolic blood pressure Post Tt” value ([7]; post-treatment, 12 weeks) was 76.32 ± 2.14 NS mmHg, the “Systolic blood pressure Post Tt” value ([7]; post-treatment, 12 weeks) was 117.47 ± 2.82 NS mmHg and the “Diastolic blood pressure Pre Tt” value ([7]; pre-treatment) was 76.95 ± 2.70 mmHg. For the same substance, the “Systolic blood pressure Pre Tt” value ([7]; pre-treatment) was 118.63 ± 2.75 mmHg.
